Experimental data published in PMC2746568 (Journal of medicinal chemistry, 2009).
Entries after “also recorded” stand apart in the source; their conditions may differ. Each block holds one compound with its values, some of them ahead of it.

Tests used:
PfDHODH = PfDHODH (Plasmodium falciparum, UniProt Q08210); details: unsubstituted phenyl; cited from earlier work
[1] = In vitro human microsomal metabolism; details: for Predicted EH (hepatic extraction ratio): estimated from measured rate of degradation in vitro; for Predicted EH (hepatic extraction ratio) / microsomal CLint at 1 µM: human; for microsomal CLint at 1 µM: pooled human liver microsomes; for Putative metabolites: human liver microsomes, LC/MS
P. berghei = P. berghei mouse in vivo efficacy testing; design: species or system Plasmodium berghei in mice; details: for ill effects from compound administration: oral 100 mg/kg/dose every 4 h × 10, then every 6 h × 6; for impact on parasite blood levels in P. berghei mouse model: oral 100 mg/kg/dose every 4 hours × 10 doses, then every 6 hours × 6 doses
[2] = Mouse pharmacokinetics after oral dosing; assay type: in vivo, mice; details: for adverse reactions in plasma exposure study: single and repeat dosing; for plasma levels reached after single oral dose: uninfected mice
Pf 3D7 cells = details: read-out: EC50 against P. falciparum in whole cell assays; cited from earlier work
in vitro = details: human, microsomes
PbDHODH = PbDHODH (Plasmodium berghei, UniProt A0A509AEH5); assay: PbDHODH steady-state inhibition assay; assay type: biochemical; details: PbDHODH vs PfDHODH

Chain of PfDHODH (Q08210 158-569): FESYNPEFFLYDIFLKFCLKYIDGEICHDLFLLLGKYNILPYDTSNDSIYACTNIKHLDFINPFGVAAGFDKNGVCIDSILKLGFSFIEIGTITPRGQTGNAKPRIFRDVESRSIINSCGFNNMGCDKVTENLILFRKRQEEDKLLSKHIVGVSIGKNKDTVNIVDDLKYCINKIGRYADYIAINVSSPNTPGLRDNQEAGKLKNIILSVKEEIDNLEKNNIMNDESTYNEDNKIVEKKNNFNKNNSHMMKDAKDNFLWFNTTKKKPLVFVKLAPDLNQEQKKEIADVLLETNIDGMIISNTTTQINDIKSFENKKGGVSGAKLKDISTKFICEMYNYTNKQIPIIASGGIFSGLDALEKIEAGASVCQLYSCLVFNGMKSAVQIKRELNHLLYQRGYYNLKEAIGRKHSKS

Predicted EH (hepatic extraction ratio) [1]: 0.50 | microsomal CLint at 1 µM [1]: 18 µL/min/mg
SMILES: Cc1cc(Nc2cccc(F)c2)n2ncnc2n1 [Compound 13, (3-Fluoro-phenyl)-(5-methyl-[1,2,4]triazolo[1,5-a]pyrimidin-7-yl)-amine]

ill effects from compound administration (P. berghei; infected mice): no major ill effects | plasma levels at 240 min on day 4 of repeat dosing ([2]; mice, 50 mg/kg oral 1x daily repeat dosing): nearly undetectable | plasma levels reached after single oral dose ([2]; 50 mg/kg oral single dose): 2000 to 3000 nM | microsomal CLint (in vitro): 96 µL/min/mg
SMILES: Cc1cc(Nc2ccc3ccccc3c2)n2ncnc2n1 [Compound 2, (5-methyl-[1,2,4]triazolo[1,5-a]pyrimidin-7-yl)-naphthalen-2-yl-amine]
impact on parasite blood levels in P. berghei mouse model (P. berghei; 100 mg/kg): no activity; also recorded: neither compound had any impact | adverse reactions in plasma exposure study ([2]; mice, 50 mg/kg oral): No adverse reactions | EC50 (Pf 3D7 cells): 80 nM

time plasma concentrations maintained above 1 µM (0.29 µg/mL) ([2]; mice, single oral dose 50 mg/kg): 16 h | microsomal CLint (in vitro): 7.5 µL/min/mg
SMILES: Cc1cc(Nc2ccc(C(F)(F)F)cc2)n2ncnc2n1 [Compound 21, (5-Methyl-[1,2,4]triazolo[1,5-a]pyrimidin-7-yl)-(4-trifluoromethyl-phenyl)-amine]
adverse reactions in efficacy study (P. berghei; infected mice, 50 mg/kg oral q.d. or b.i.d. for 4 days): No adverse reactions | adverse reactions after oral administration ([2]; mice, single oral dose 20 or 50 mg/kg): No adverse reactions

Predicted EH (hepatic extraction ratio) [1]: 0.43 | microsomal CLint at 1 µM [1]: 14 µL/min/mg
SMILES: Cc1cc(Nc2ccc(Br)c(C(F)(F)F)c2)n2ncnc2n1 [Compound 42, (4-Bromo-3-trifluoromethyl-phenyl)-(5-methyl-[1,2,4]triazolo[1,5-a]pyrimidin-7-yl)-amine]

Predicted EH (hepatic extraction ratio) [1]: 0.62 | microsomal CLint at 1 µM [1]: 29 µL/min/mg
SMILES: Cc1cc(Nc2cccc(C(F)(F)F)c2)n2ncnc2n1 [Compound 16, (5-Methyl-[1,2,4]triazolo[1,5-a]pyrimidin-7-yl)-(3-trifluoromethyl-phenyl)-amine]

Second part, the compound before the results:

SMILES: Cc1cc(Nc2ccccc2)n2ncnc2n1 [Compound 4]
activity (in words) (PfDHODH): completely inactive

SMILES: Cc1cc(Nc2ccc(C#N)c(C(F)(F)F)c2)n2ncnc2n1 [Compound 45, 4-(5-Methyl-[1,2,4]triazolo[1,5-a]pyrimidin-7-ylamino)-2-trifluoromethyl-benzonitrile]
Putative metabolites [1]: no metabolites were detected; also recorded: None detected

SMILES: Cc1cc(Nc2ccc(C(F)(F)F)c(F)c2)n2ncnc2n1 [Compound 47, (3-Fluoro-4-trifluoromethyl-phenyl)-(5-methyl-[1,2,4]triazolo[1,5-a]pyrimidin-7-yl)-amine]
Putative metabolites [1]: no metabolites were detected; also recorded: None detected

SMILES: Cc1cc(Nc2ccc(F)c(C)c2)n2ncnc2n1 [Compound 40, (4-Fluoro-3-methyl-phenyl)-(5-methyl-[1,2,4]triazolo[1,5-a]pyrimidin-7-yl)-amine]
Predicted EH (hepatic extraction ratio) [1]: 0.64 | microsomal CLint at 1 µM [1]: 31 µL/min/mg

SMILES: Cc1cc(Nc2ccc(Cl)c(C(F)(F)F)c2)n2ncnc2n1 [Compound 41, (4-Chloro-3-trifluoromethyl-phenyl)-(5-methyl-[1,2,4]triazolo[1,5-a]pyrimidin-7-yl)-amine]
Predicted EH (hepatic extraction ratio) [1]: 0.42 | microsomal CLint at 1 µM [1]: 13 µL/min/mg

SMILES: Cc1cc(Nc2cccc(Cl)c2)n2ncnc2n1 [Compound 14, (3-Chloro-phenyl)-(5-methyl-[1,2,4]triazolo[1,5-a]pyrimidin-7-yl)-amine]
microsomal CLint (in vitro): 38 µL/min/mg

SMILES: Cc1cc(Nc2ccc3cc4ccccc4cc3c2)n2ncnc2n1 [Compound 3, (5-Methyl-[1,2,4]triazolo[1,5-a]pyrimidin-7-yl)-anthracen-2-yl-amine]
ill effects from compound administration (P. berghei; infected mice): no major ill effects | impact on parasite blood levels in P. berghei mouse model (P. berghei): neither compound had any impact | plasma concentrations after last dose of repeat dosing relative to single dose ([2]; mice, 50 mg/kg oral for 2 to 4 days): significantly reduced | plasma concentrations maintained over 240 min ([2]; mice, 50 mg/kg oral single dose): 1000 to 3000 nM | observed plasma levels ([2]; mice, 50 mg/kg oral, repeat dosing): ~ 1 µM | adverse reactions in plasma exposure study ([2]; mice, 50 mg/kg oral): No adverse reactions | plasma levels reached after single oral dose ([2]; 50 mg/kg oral single dose): 2000 to 3000 nM | IC50 fold higher for PbDHODH than for PfDHODH (PbDHODH): 66 fold | Predicted EH (hepatic extraction ratio) [1]: 0.70 | microsomal CLint at 1 µM [1]: 37 µL/min/mg
